Assays:
human 5-HT2B receptor = biological target: T1, human 5-HT2B receptor (Homo sapiens, UniProt P41595); assay: 5-HT2B agonist activity assay (IP1 production, HTRF, transfected CHO cells); type: cell-based
T1 construct: host or cells: CHO cells (membrane homogenates)
Protocol: Evaluation of the agonist activity of compounds (I), (Ia) and (Ib) at the human 5-HT2B receptor was performed by Eurofins/Cerep (France) measuring the compound effects on inositol monophosphate (IP1) production using the HTRF detection method. Briefly, the human 5-HT2B receptor was expressed in transfected CHO cells. The cells were suspended in a buffer containing 10 mM Hepes/NaOH (pH 7.4), 4.2 mM KCl, 146 mM NaCl, 1 mM CaCl2, 0.5 mM MgCl2, 5.5 mM glucose and 50 mM LiCl, then distributed in microplates at a density of 4100 cells/well and incubated for 30 minutes at 37° C. in the presence of buffer (basal control), test compound or reference agonist. For stimulated control measurement, separate assay wells contained 1 μM 5-HT. Following incubation, the cells were lysed and the fluorescence acceptor (fluorophen D2-labeled IP1) and fluorescence donor (anti-IP1 antibody labeled with europium cryptate) were added. After 60 minutes at room temperature, the fluorescence transfer was measured at lambda(Ex) 337 nm and lambda(Em) 620 and 665 nm using a microplate reader (Rubystar, BMG). The IP1 concentration was determined by dividing the signal measured at 665 nm by that measured at 620 nm (ratio). The results were expressed as a percent of the control response to 1 μM 5-HT. […]

[1] = PK experiments in rats: plasma compound (I) after oral dosing of prodrug; type: in vivo, Wistar rats; details: Wistar rats, oral
Protocol: Plasma was placed on water-ice following collection. Final storage at approximately −70° C.
Mobile phase B: Acetonitrile. […] Flow rate 0.5 mL/min.
The rats had unrestricted access to the diet.
Mobile phase B: Acetonitrile+0.2% formic acid. […] Flow rate 0.3 mL/min.
Dosing and blood sampling: Han Wistar rats were supplied by Envigo, UK. […] The rats received a standard laboratory diet Teklad 2014C. The rats had unrestricted access to the diet. […] Rats were given […] (Ic), 487 ag/kg compound (7), 487 ag/kg Compound (4), 674 ag/kg compound (9), 359 ag/kg A6 and 551 ag/kg A2.

[2] = man, oral dosing; cited from earlier work

T1 sequence (P41595 whole entry): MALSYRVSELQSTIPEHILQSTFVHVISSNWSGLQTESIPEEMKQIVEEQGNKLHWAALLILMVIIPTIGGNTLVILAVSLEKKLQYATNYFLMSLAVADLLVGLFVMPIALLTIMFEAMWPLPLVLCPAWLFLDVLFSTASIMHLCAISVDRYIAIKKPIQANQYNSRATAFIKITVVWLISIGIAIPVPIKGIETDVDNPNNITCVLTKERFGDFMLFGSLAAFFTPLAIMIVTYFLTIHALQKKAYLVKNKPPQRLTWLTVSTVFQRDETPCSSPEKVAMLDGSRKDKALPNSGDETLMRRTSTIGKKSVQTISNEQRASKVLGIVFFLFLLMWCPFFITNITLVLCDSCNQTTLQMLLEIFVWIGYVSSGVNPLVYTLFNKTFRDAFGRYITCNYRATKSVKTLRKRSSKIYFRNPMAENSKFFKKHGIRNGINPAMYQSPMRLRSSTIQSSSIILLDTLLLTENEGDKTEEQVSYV

SMILES	5-HT2B receptor agonism (in words) (human 5-HT2B receptor)	plasma concentrations of compound (I) after oral dosing (in words) [1]	oral bioavailability [2] [%]	5-HT2B % @ 30 uM (human 5-HT2B receptor; 30 uM, percent of control response to 1 μM 5-HT) [%]
CCCN1CCC[C@@H]2Cc3c(ccc4c3OCO4)C[C@H]21 [(Ib), (6aR,10aR)-7-propyl-6,6a,7,8,9,10,10a,11-octahydro-[1,3]dioxolo[4′,5′:5,6]benzo[1,2-g]quinoline, reference compound]	agonist of the 5-HT2B receptor	early and high peak plasma concentrations of compound (I)	–	–
CCCc1cc2c(s1)CN[C@@H]1CCc3cc(OC(C)=O)c(OC(C)=O)cc3[C@@H]21 [Adrogolide]	–	–	~4	–
CCCN1CCC[C@@H]2CC3=C(CCCC3=O)C[C@H]21 [(Ia), reference compound]	–	early and high peak plasma concentrations of compound (I)	–	58
